Reference: PubChem BioAssay AID1259408 (Genetic Toxicology Data Bank (GENE-TOX), 2018)
Activity calls are given as the source filed them. The rule behind the calls is not given here.

System: GENE-TOX genotoxicity assays, various organisms and cells
Test: GENE-TOX mutagenicity studies
Conditions: for call: Assay Type: In vivo carcinogenicity studies
[1] = Species/Cell Type: Nonhuman, Assay Code: CCGT, Evaluation Type: Evaluation A (Pre-1980)
[2] = Species/Cell Type: Nonhuman, Assay Type: Sister-chromatid exchange (SCE) in vitro, Assay Code: SC2+D, Dose Response: With dose response, Evaluation Type: Evaluation B (Post-1980)
[3] = Species/Cell Type: Bacillus subtilis (H17 vs M45), Assay Type: Rec-assay, spot test, DNA effects (bacterial DNA repair), Assay Code: REWT, Evaluation Type: Evaluation A (Pre-1980)
[4] = Species/Cell Type: Drosophila melanogaster, Assay Type: Sex-linked recessive lethal gene mutation, Assay Code: SRLT, Evaluation Type: Evaluation A (Pre-1980)
[5] = Species/Cell Type: Escherichia coli polA (W3119 vs P3478), Assay Type: Rec-assay, DNA effects (bacterial DNA repair), Assay Code: RE1T, Evaluation Type: Evaluation A (Pre-1980)
[6] = Species/Cell Type: Human diploid fibroblasts, Assay Type: Unscheduled DNA synthesis (UDS) in vitro, DNA effects, Assay Code: UDH-, Evaluation Type: Evaluation A (Pre-1980)
[7] = Species/Cell Type: Saccharomyces cerevisiae, Assay Type: Mitotic recombination or gene conversion, Assay Code: YEH-, Evaluation Type: Evaluation A (Pre-1980)
[8] = Species/Cell Type: Nonhuman, Assay Type: Sister-chromatid exchange (SCE) in vitro, Assay Code: SC2+, Evaluation Type: Evaluation B (Post-1980)
[9] = Species/Cell Type: Salmonella typhimurium (one or more of the five standard strains: TA98, TA100, TA1535, TA1537, and TA1538), Assay Type: Histidine reverse gene mutation, Ames assay, Assay Code: SALT, Evaluation Type: Evaluation A (Pre-1980)
[10] = Species/Cell Type: Salmonella typhimurium (one or more of the five standard strains: TA98, TA100, TA1535, TA1537, and TA1538), Assay Type: Histidine reverse gene mutation, Ames assay, Assay Code: SAL-, Evaluation Type: Evaluation A (Pre-1980)
[11] = Species/Cell Type: Salmonella typhimurium (one or more of the five standard strains: TA98, TA100, TA1535, TA1537, and TA1538), Assay Type: Histidine reverse gene mutation, Ames assay, Assay Code: SAL+*, Activation: With metabolic activation, Evaluation Type: Evaluation A (Pre-1980)
[12] = Species/Cell Type: Fischer rat embryo (RLV/1706) cells, Assay Type: Cell transformation, viral enhanced, Assay Code: CTR+, Evaluation Type: Evaluation A (Pre-1980)
[13] = Species/Cell Type: Bacillus subtilis (H17 vs M45), Assay Type: Rec-assay, spot test, DNA effects (bacterial DNA repair), Assay Code: REW-, Evaluation Type: Evaluation A (Pre-1980)
[14] = Species/Cell Type: Saccharomyces cerevisiae, Assay Type: Mitotic recombination or gene conversion, Assay Code: YEC-, Evaluation Type: Evaluation A (Pre-1980)

Q: How did the mutagenic call (Species/Cell Type: Chinese hamster lung (V79) cells, Assay Type: Forward gene mutation at the HPRT or ouabain locus, Assay Code: V79+, Evaluation Type: Evaluation A (Pre-1980)) turn out when `Cc1cn([C@H]2C[C@H](O)[C@@H](CO)O2)c(=O)[nH]c1=O` was run?
A: active; positive

Q: What about the mutagenic call (Species/Cell Type: Glycine max (soybean), Assay Type: Gene mutation, Assay Code: GLM-, Evaluation Type: Evaluation A (Pre-1980)) of the same compound?
A: inactive; negative

Q: What about the mutagenic call (Species/Cell Type: Human lymphocytes, Assay Type: Sister-chromatid exchange (SCE) in vitro, Assay Code: SCLT, Evaluation Type: Evaluation B (Post-1980)) of the same compound?
A: no conclusion

Q: And the mutagenic call (Species/Cell Type: Human, Assay Type: Sister-chromatid exchange (SCE) in vitro, Assay Code: SC1T, Evaluation Type: Evaluation B (Post-1980))?
A: no conclusion

Q: What about the mutagenic call (Species/Cell Type: Mouse (C3H/10T1/2) cells, Assay Type: Cell transformation, Assay Code: CTH-, Evaluation Type: Evaluation A (Pre-1980)) of the same compound?
A: inactive; negative

Q: And the call [1]?
A: no conclusion

Q: And the mutagenic call [2]?
A: active; positive

Q: For `NCCBr`, which mutagenic call (Species/Cell Type: Schizosaccharomyces pombe, Assay Type: Reverse gene mutation, Assay Code: YEZ+, Evaluation Type: Evaluation A (Pre-1980)) is on record?
A: active; positive

Q: For `CN(C)C(=O)Nc1ccc(Cl)cc1`, which mutagenic call [3] is on record?
A: no conclusion

Q: What about the mutagenic call [4] of the same compound?
A: no conclusion

Q: And the mutagenic call (Species/Cell Type: Escherichia coli WP2 UVRA, Assay Type: Tryptophan reverse gene mutation, Assay Code: WPU-*, Activation: With metabolic activation, Evaluation Type: Evaluation A (Pre-1980))?
A: inactive; negative

Q: What about the mutagenic call [5] of the same compound?
A: no conclusion

Q: And the mutagenic call (Species/Cell Type: Hordeum vulgare (barley), Assay Type: Chromosome aberrations, Assay Code: HOC+, Evaluation Type: Evaluation A (Pre-1980))?
A: active; positive

Q: And the mutagenic call [6]?
A: inactive; negative

Q: What about the call (Species/Cell Type: Nonhuman, Assay Code: CCG+L, Evaluation Type: Evaluation A (Pre-1980)) of the same compound?
A: active; positive

Q: What about the mutagenic call [7] of the same compound?
A: inactive; negative

Q: With `[Cl][Hg]` as the compound, how does the mutagenic call (Species/Cell Type: Bacillus subtilis (H17 vs M45), Assay Type: Rec-assay, spot test, DNA effects (bacterial DNA repair), Assay Code: REW+, Evaluation Type: Evaluation A (Pre-1980)) read?
A: active; positive

Q: And the mutagenic call (Species/Cell Type: Bacillus subtilis (H17 vs M45T), Assay Type: Rec-assay, spot test, DNA effects (bacterial DNA repair), Assay Code: REXT, Evaluation Type: Evaluation A (Pre-1980))?
A: no conclusion

Q: And the mutagenic call [8]?
A: active; positive

Q: Which mutagenic call [9] does the source give for `CC[C@@]1(O)C[C@H](O[C@H]2C[C@H](N(C)C)[C@H](O[C@H]3C[C@H](O)[C@H](O[C@H]4CCC(=O)[C@H](C)O4)[C@H](C)O3)[C@H](C)O2)c2c(cc3c(c2O)C(=O)c2c(O)cccc2C3=O)[C@H]1C(=O)OC` here?
A: no conclusion

Q: Which mutagenic call [2] does the source give for `CCC(=O)ONC(=O)c1ccc2ccccc2c1` here?
A: active; positive

Q: Which mutagenic call [4] does the source give for `ClC1=C(Cl)[C@]2(Cl)[C@@H]3[C@H]4C[C@H]([C@@H]5O[C@H]45)[C@@H]3[C@@]1(Cl)C2(Cl)Cl` here?
A: no conclusion

Q: And the mutagenic call (Species/Cell Type: Hordeum vulgare (barley), Assay Type: Chromosome aberrations, Assay Code: HOCT, Evaluation Type: Evaluation A (Pre-1980))?
A: no conclusion

Q: And the mutagenic call [6]?
A: inactive; negative

Q: And the call (Species/Cell Type: Nonhuman, Assay Code: CCG-L, Evaluation Type: Evaluation A (Pre-1980))?
A: inactive; negative

Q: What about the mutagenic call [7] of the same compound?
A: inactive; negative

Q: And the mutagenic call [10]?
A: inactive; negative

Q: And the mutagenic call (Species/Cell Type: Vicia faba, Assay Type: Chromosome aberrations, Assay Code: VIC+D, Dose Response: With dose response, Evaluation Type: Evaluation A (Pre-1980))?
A: active; positive

Q: `CCCCOc1ccc(CC(=O)NOC(=O)CC)cc1` was tested. Which mutagenic call [8] did it give?
A: active; positive

Q: `Cc1cnc2ccccc2c1` was tested. Which mutagenic call [11] did it give?
A: active; positive

Q: How did the mutagenic call [4] turn out when `O=c1cc[nH]c(=S)[nH]1` was run?
A: no conclusion

Q: For `Oc1cccc2cc3cccc(O)c3c(O)c12`, which mutagenic call (Species/Cell Type: Escherichia coli polA (W3119 vs P3478), Assay Type: Rec-assay, DNA effects (bacterial DNA repair), Assay Code: RE1+, Evaluation Type: Evaluation A (Pre-1980)) is on record?
A: active; positive

Q: What about the mutagenic call [12] of the same compound?
A: active; positive

Q: And the mutagenic call (Species/Cell Type: Mammalian polychromatic erythrocytes, Assay Type: Micronucleus test, chromosome aberrations, Assay Code: MNT-, Evaluation Type: Evaluation B (Post-1980))?
A: inactive; negative

Q: What about the mutagenic call (Species/Cell Type: Mouse (BALB/c-3T3) cells, Assay Type: Cell transformation, Assay Code: CTB-, Evaluation Type: Evaluation A (Pre-1980)) of the same compound?
A: inactive; negative

Q: And the call [1]?
A: no conclusion

Q: What about the mutagenic call [10] of the same compound?
A: inactive; negative

Q: What about the mutagenic call (Species/Cell Type: Salmonella typhimurium, Assay Type: Forward and reverse gene mutation, host-mediated assay, Assay Code: HMA-, Evaluation Type: Evaluation A (Pre-1980)) of the same compound?
A: inactive; negative

Q: And the mutagenic call (Species/Cell Type: Syrian hamster embryo (SHE) cells, Assay Type: Cell transformation, clonal assay, Assay Code: CTC-, Evaluation Type: Evaluation A (Pre-1980))?
A: inactive; negative

Q: Which mutagenic call [13] does the source give for `Cc1cc(N=Nc2ccc(C)c(N=Nc3cc(C)c(N)cc3N)c2)c(N)cc1N` here?
A: inactive; negative

Q: Which mutagenic call [3] does the source give for `CCCCCCCC(=O)Oc1c(I)cc(C#N)cc1I` here?
A: no conclusion

Q: How did the mutagenic call [6] turn out when `CCOC(=O)C1C(C=C(C)C)C1(C)C` (configuration not stated) was run?
A: inactive; negative

Q: What about the mutagenic call (Species/Cell Type: Saccharomyces cerevisiae, Assay Type: Mitotic recombination or gene conversion, Assay Code: YEH+, Evaluation Type: Evaluation A (Pre-1980)) of the same compound?
A: active; positive

Q: With `CCCCOc1ccc(CC(=O)NOC=O)cc1` as the compound, how does the mutagenic call [2] read?
A: active; positive

Q: `Clc1ccc(COC(Cn2ccnc2)c2ccc(Cl)cc2Cl)cc1` (configuration not stated) was tested. Which mutagenic call (Species/Cell Type: Aspergillus nidulans, Assay Type: Aneuploidy, chromosome aberrations, Assay Code: ASN+, Evaluation Type: Evaluation A (Pre-1980)) did it give?
A: active; positive

Q: For `Cc1cc(=O)oc2cc(O)ccc12`, which mutagenic call (Species/Cell Type: Allium cepa, Assay Type: Chromosome aberrations, Assay Code: ALC+, Evaluation Type: Evaluation A (Pre-1980)) is on record?
A: active; positive

Q: What does the source list for `CC(=O)Nc1ccc(OCC(O)CNC(C)C)cc1` (configuration not stated)?
A: mutagenic call (Species/Cell Type: Mammalian polychromatic erythrocytes, Assay Type: Micronucleus test, chromosome aberrations, Assay Code: MNTT, Evaluation Type: Evaluation B (Post-1980)): no conclusion; mutagenic call (Species/Cell Type: Mouse, Sex: Male, Assay Type: Sperm morphology, Assay Code: SPI-, Evaluation Type: Evaluation A (Pre-1980)): inactive; negative

Q: `c1cc2c(cc1CC1CO1)OCO2` (configuration not stated) was tested. Which mutagenic call (Species/Cell Type: Salmonella typhimurium (one or more of the five standard strains: TA98, TA100, TA1535, TA1537, and TA1538), Assay Type: Histidine reverse gene mutation, Ames assay, Assay Code: SAL+, Evaluation Type: Evaluation A (Pre-1980)) did it give?
A: active; positive

Q: How did the mutagenic call [5] turn out when `O=C1c2ccccc2-c2ccccc21` was run?
A: no conclusion

Q: For `c1ccc2c(c1)ccc1nc3c(ccc4ccccc43)cc12`, which mutagenic call [12] is on record?
A: active; positive

Q: And the call (Species/Cell Type: Nonhuman, Assay Code: CCG+, Evaluation Type: Evaluation A (Pre-1980))?
A: active; positive

Q: With `C[C@H](CCC(=O)O)[C@H]1CC[C@H]2[C@@H]3CC[C@@H]4C[C@H](O)CC[C@]4(C)[C@H]3CC[C@]12C` as the compound, how does the mutagenic call [12] read?
A: active; positive

Q: What about the mutagenic call (Species/Cell Type: Syrian hamster embryo (SHE) cells, Assay Type: Cell transformation, clonal assay, Assay Code: CTCT, Evaluation Type: Evaluation A (Pre-1980)) of the same compound?
A: no conclusion

Q: How did the mutagenic call (Species/Cell Type: Escherichia coli WP2, Assay Type: Tryptophan reverse gene mutation, Assay Code: WP2-, Evaluation Type: Evaluation A (Pre-1980)) turn out when `O=Cc1ccc([N+](=O)[O-])o1` was run?
A: inactive; negative

Q: What about the mutagenic call [14] of the same compound?
A: inactive; negative

Q: With `OCC(Cl)(Cl)Cl` as the compound, how does the mutagenic call [9] read?
A: no conclusion

Q: How did the mutagenic call [13] turn out when `[Cl][Cr]([Cl])[Cl]` was run?
A: inactive; negative

Q: What about the mutagenic call (Species/Cell Type: Human lymphocytes, Assay Type: Sister-chromatid exchange (SCE) in vitro, Assay Code: SCL-, Evaluation Type: Evaluation B (Post-1980)) of the same compound?
A: inactive; negative

Q: And the mutagenic call (Species/Cell Type: Human, Assay Type: Sister-chromatid exchange (SCE) in vitro, Assay Code: SC1-, Evaluation Type: Evaluation B (Post-1980))?
A: inactive; negative

Q: And the mutagenic call (Species/Cell Type: Mammalian oocytes or early embryo, Assay Type: Chromosome aberrations in vivo, Assay Code: CYO-, Evaluation Type: Evaluation A (Pre-1980))?
A: inactive; negative

Q: And the mutagenic call [8]?
A: active; positive

Q: And the mutagenic call (Species/Cell Type: Nonhuman, Assay Type: Sister-chromatid exchange (SCE) in vitro, Assay Code: SC2T, Evaluation Type: Evaluation B (Post-1980))?
A: no conclusion

Q: And the mutagenic call [9]?
A: no conclusion

Q: For `CC(C)(OO)c1ccccc1`, which mutagenic call [14] is on record?
A: inactive; negative

Q: `Cc1cc2c3ccccc3ccc2c2ccccc12` was tested. Which mutagenic call [11] did it give?
A: active; positive

Q: `CCNCC` was tested. Which mutagenic call (Species/Cell Type: Saccharomyces cerevisiae, Assay Type: Forward gene mutation, Assay Code: YEF-*, Activation: With metabolic activation, Evaluation Type: Evaluation A (Pre-1980)) did it give?
A: inactive; negative
